Source: patent US10807988B2, “3-((hetero-)aryl)-8-amino-2-oxo-1,3-diaza-spiro-[4.5]-decane derivatives” (Grünenthal GmbH, priority 2016, dated 2020)

Assays:
[1] = target: human nociceptin/orphanin FQ peptide (hNOP) receptor (Homo sapiens (Human), UniProt P41146); assay type: binding
[2] = target: human mu-opioid peptide (hMOP) receptor (Homo sapiens (Human), UniProt P35372); experiment: Human mu-opioid peptide (hMOP) receptor binding assay (SPA, [3H]naloxone displacement)
Sequence of human mu-opioid peptide (hMOP) receptor (P35372 whole entry): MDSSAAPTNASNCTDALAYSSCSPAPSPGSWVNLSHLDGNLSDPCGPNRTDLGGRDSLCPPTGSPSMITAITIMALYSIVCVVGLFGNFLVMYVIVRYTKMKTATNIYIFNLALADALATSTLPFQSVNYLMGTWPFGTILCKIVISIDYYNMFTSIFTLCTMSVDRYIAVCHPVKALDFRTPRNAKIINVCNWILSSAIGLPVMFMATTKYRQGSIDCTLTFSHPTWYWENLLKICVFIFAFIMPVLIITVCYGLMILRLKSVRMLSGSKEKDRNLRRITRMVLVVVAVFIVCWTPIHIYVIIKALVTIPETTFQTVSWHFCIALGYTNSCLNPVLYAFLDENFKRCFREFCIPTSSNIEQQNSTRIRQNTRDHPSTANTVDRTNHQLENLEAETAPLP

Row | Structure (SMILES) | hNOP % inhibition at 1 μM [1] [%] | other results
1 | CN1CCN(c2ncc(N3CC4(CCC(c5ccccc5)(N(C)CC5CCOC5)CC4)NC3=O)cn2)CC1 (single isomer, unassigned; enantiomer 1) [SC_3324, cis-3-[2-(4-Methyl-piperazin-1-yl)-pyrimidin-5-yl]-8-[methyl-(tetrahydro-furan-3-yl-methyl)-amino]-8-phenyl-1,3-diazaspiro[4.5]decan-2-one (enantiomer 1)] | 12 | 
2 | CN1CCN(c2ncc(N3CC4(CCC(c5ccccc5)(N(C)CC5CCOC5)CC4)NC3=O)cn2)CC1 (single isomer, unassigned; enantiomer 2) [SC_3325, cis-3-[2-(4-Methyl-piperazin-1-yl)-pyrimidin-5-yl]-8-[methyl-(tetrahydro-furan-3-yl-methyl)-amino]-8-phenyl-1,3-diazaspiro[4.5]decan-2-one (enantiomer 2)] |  | hNOP % inhibition at 10 μM [1]: 53%@10 μM
3 | CN(C)[C@]1(c2ccccc2)CC[C@]2(CC1)CN(c1cnc(C#N)nc1)C(=O)N2CCO [SC_3025, cis-5-[8-Dimethylamino-1-(2-hydroxy-ethyl)-2-oxo-8-phenyl-1,3-diazaspiro[4.5]decan-3-yl]-pyrimidine-2-carbonitrile] |  | Ki [2]: 1530 nM
4 | CNC1(c2ccccc2)CCC2(CC1)CN(c1ccccc1C(N)=O)C(=O)N2 (stereo not drawn) [SC_3119, cis-2-(8-Methylamino-2-oxo-8-phenyl-1,3-diazaspiro[4.5]decan-3-yl)-benzamide] | 22 | hMOP % inhibition at 1 μM [2]: 10%
5 | CCNC1(c2ccccc2)CCC2(CC1)CN(c1ccccc1C(N)=O)C(=O)N2 (stereo not drawn) [SC_3125, trans-2-(8-Ethylamino-2-oxo-8-phenyl-1,3-diazaspiro[4.5]decan-3-yl)-benzamide] |  | hNOP % inhibition at 10 μM [1]: 3%@10 μM
6 | CCNC1(c2ccccc2)CCC2(CC1)CN(c1ccccc1C(N)=O)C(=O)N2 (stereo not drawn) [SC_3126, cis--2-(8-Ethylamino-2-oxo-8-phenyl-1,3-diazaspiro[4.5]decan-3-yl)-benzamide] | 0 | 
7 | CCN[C@]1(c2ccccc2)CC[C@@]2(CC1)CN(c1ccccc1C#N)C(=O)N2 [SC_3127, cis-2-(8-Ethylamino-2-oxo-8-phenyl-1,3-diazaspiro[4.5]decan-3-yl)-benzonitrile] | 0 | 
8 | CCN[C@]1(c2ccccc2)CC[C@]2(CC1)CN(c1ccccc1C#N)C(=O)N2 [SC_3128, cis-2-(8-Ethylamino-2-oxo-8-phenyl-1,3-diazaspiro[4.5]decan-3-yl)-benzonitrile] | 0 | 
9 | CCNC1(c2ccccc2)CCC2(CC1)CN(c1ccc(C#N)cc1OC)C(=O)N2 (stereo not drawn) [SC_3134, trans-4-(8-Ethylamino-2-oxo-8-phenyl-1,3-diazaspiro[4.5]decan-3-yl)-3-methoxy-benzonitrile] |  | hNOP % inhibition at 10 μM [1]: 3%@10 μM
10 | CCNC1(c2ccccc2)CCC2(CC1)CN(c1ccc(C#N)cc1OC)C(=O)N2 (stereo not drawn) [SC_3135, cis-4-(8-Ethylamino-2-oxo-8-phenyl-1,3-diazaspiro[4.5]decan-3-yl)-3-methoxy-benzonitrile] | 1 | 
11 | CCN[C@]1(c2ccccc2)CC[C@]2(CC1)CN(c1cnc(C#N)nc1OC)C(=O)N2 [SC_3143, cis-5-(8-Ethylamino-2-oxo-8-phenyl-1,3-diazaspiro[4.5]decan-3-yl)-4-methoxy-pyrimidine-2-carbonitrile] | 0 | 
12 | CCN[C@]1(c2ccccc2)CC[C@@]2(CC1)CN(c1cnc(C#N)nc1OC)C(=O)N2 [SC_3144, trans-5-(8-Ethylamino-2-oxo-8-phenyl-1,3-diazaspiro[4.5]decan-3-yl)-4-methoxy-pyrimidine-2-carbonitrile] | 0 | 
13 | CN(C)[C@]1(Cc2ccccc2)CC[C@@]2(CC1)CN(c1cnc(N3CCOCC3)nc1)C(=O)N2 [SC_3160, trans-8-Benzyl-8-dimethylamino-3-(2-morpholin-4-yl-pyrimidin-5-yl)-1,3-diazaspiro[4.5]decan-2-one] | 4 | 
14 | CN(C)C1(Cc2ccccc2)CCC2(CC1)CN(c1cnc(N3CCOCC3)nc1)C(=O)N2 (stereo not drawn) [SC_3161, cis-8-Benzyl-8-dimethylamino-3-(2-morpholin-4-yl-pyrimidin-5-yl)-1,3-diazaspiro[4.5]decan-2-one] | 2 | 
15 | CN(C)C1(Cc2ccccc2)CCC2(CC1)CN(c1cnc(C(F)(F)F)nc1)C(=O)N2 (stereo not drawn) [SC_3165, cis-8-Benzyl-8-dimethylamino-3-[2-(trifluoromethyl)-pyrimidin-5-yl]-1,3-diazaspiro[4.5]decan-2-one] | 4 | 
16 | CN(C)[C@]1(Cc2ccccc2)CC[C@@]2(CC1)CN(c1cnc(C(F)(F)F)nc1)C(=O)N2 [SC_3166, trans-8-Benzyl-8-dimethylamino-3-[2-(trifluoromethyl)-pyrimidin-5-yl]-1,3-diazaspiro[4.5]decan-2-one] | 3 | 
17 | Cc1cc(C(F)(F)F)ncc1N1C[C@]2(CC[C@@](Cc3ccccc3)(N(C)C)CC2)NC1=O [SC_3174, trans-8-Benzyl-8-dimethylamino-3-[4-methyl-6-(trifluoromethyl)-pyridin-3-yl]-1,3-diazaspiro[4.5]decan-2-one] | 3 | 
18 | Cc1cc(C(F)(F)F)ncc1N1CC2(CCC(Cc3ccccc3)(N(C)C)CC2)NC1=O (stereo not drawn) [SC_3215, cis-8-Benzyl-8-dimethylamino-3-[4-methyl-6-(trifluoromethyl)-pyridin-3-yl]-1,3-diazaspiro[4.5]decan-2-one] | 0 | 
19 | CN(C)C1(c2nc3ccccc3n2C)CCC2(CC1)CN(c1cnc(C(F)(F)F)nc1)C(=O)N2 (stereo not drawn) [SC_3219, cis-8-Dimethylamino-8-(1-methyl-1H-benzoimidazol-2-yl)-3-[2-(trifluoromethyl)-pyrimidin-5-yl]-1,3-diazaspiro[4.5]decan-2-one] | 0 | hMOP % inhibition at 1 μM [2]: 1%
20 | CN(CC1CCOC1)[C@]1(c2ccccc2)CC[C@]2(CC1)CN(c1cnc(N3CCOCC3)nc1)C(=O)N2 (stereo partly drawn) [SC_3304, cis-8-[Methyl-(tetrahydro-furan-3-yl-methyl)-amino]-3-(2-morpholin-4-yl-pyrimidin-5-yl)-8-phenyl-1,3-diazaspiro[4.5]decan-2-one] | 9 | hMOP % inhibition at 1 μM [2]: 4%
21 | CN(CC1CCOC1)[C@]1(c2ccccc2)CC[C@]2(CC1)CN(c1cnc(N3CCOCC3)nc1)C(=O)N2 (stereo partly drawn) [SC_3305, cis-8-[Methyl-(tetrahydro-furan-3-yl-methyl)-amino]-3-(2-morpholin-4-yl-pyrimidin-5-yl)-8-phenyl-1,3-diazaspiro[4.5]decan-2-one] | 10 | hMOP % inhibition at 1 μM [2]: 0%
